# Assay results reported in US20240262833A1, “FUSED HETEROCYCLIC DERIVATIVES AS NEGATIVE ALLOSTERIC MODULATORS OF MGLU7 RECEPTOR” (Addex Pharma S.A., priority 2021, published 2024).
# Target: T1, human metabotropic glutamate 7 receptor (hmGlu7) (Homo sapiens, UniProt Q14831)
# T1 construct: expressed in transfected cells
# Assay: mGlu7 assay on HEK-expressing human mGlu7: fluorescent cell based Ca2+ mobilization assay (FLIPR), inhibition of EC80 L-AP4 response
# Conditions: HEK-293 cells expressing hmGlu7; EC80 L-AP4 stimulation; mean of at least three independent experiments in duplicate; read-out: Ca2+ Flux (mean IC50)
# Source text: mGlu7 Assay on HEK-Expressing Human mGlu7
# The cDNA encoding the human metabotropic glutamate 7 receptor (hmGlu7), (accession number NM_181874.2, NCBI Nucleotide database browser), was subcloned into an expression vector containing also the hygromycin resistance gene. In parallel, the cDNA encoding a G protein allowing redirection of the activation signal to intracellular calcium flux was subcloned into a different expression vector containing also the Puromycin resistance gene. Transfection of both these vectors into HEK293 cells with PolyFect reagent (Qiagen) according to supplier's protocol, and hygromycin and puromycin treatment allowed selection of antibiotic resistant cells which had integrated stably one or more copies of the plasmids. Positive cellular clones expressing hmGlu7 were identified in a functional assay measuring changes in calcium fluxes in response to glutamate and L-AP4 or known mGlu7 orthosteric antagonists.
# HEK-293 cells expressing hmGlu7 were maintained in media containing DMEM, Fetal Bovine Serum (10%), Glutamax™ (2 mM), penicillin (100 units/mL), streptomycin (100 μg/mL), geneticin (100 μg/mL) and hygromycin-B (40 μg/mL) and puromycin (1 μg/mL) at 37° C. with 5% CO2 in a humidified atmosphere.
# Fluorescent Cell Based-Ca^2+ Mobilization Assay Human mGlu7 HEK-293 cells were plated out 24 hours prior to a fluorescent cell-based calcium mobilization assay using FLIPR^384 assay (Molecular Device, Sunnyvale, CA, USA) in black-walled, clear-bottomed, poly-L-ornithine-coated 384-well plates at a density of 25,000 cells/well in a glutamine/glutamate free DMEM medium containing fetal bovine serum (10%), penicillin (100 units/mL), streptomycin (100 μg/mL) and doxycyline (1 μg/ml) at 37° C. with 5% CO2 in a humidified atmosphere.
# On the day of the assay, the medium was aspirated and the cells were loaded with a 3 μM solution of Fluo4-AM (LuBioScience, Lucerne, Switzerland) in 0.03% pluronic acid. After 1 hour at 37° C./5% CO2, the non incorporated dye was removed by washing cell plate with the assay buffer. All assays were performed in a pH 7.4 buffered-solution containing 20 mM HEPES, 143 mM NaCl, 6 mM KCl, 1 mM MgSO4, 1 mM CaCl2, 0.125 mM sulfinpyrazone and 0.1% glucose.
# After 10 s of basal fluorescence recording, various concentrations of the compounds of the invention were added to the cells. Changes in fluorescence levels were first monitored for 180 s in order to detect any agonist activity of the compounds. Then the cells were stimulated by an EC80 L-AP4 concentration for an additional 110 s in order to measure inhibiting activities of the compounds of the invention. EC80 L-AP4 concentration is the concentration giving 80% of the maximal glutamate response.
# The concentration-response curves of L-AP4 or representative compounds of the present invention were generated using the Prism GraphPad software (Graph Pad Inc, San Diego, USA). The curves were fitted to a four-parameter logistic equation: […]
# allowing determination of IC50 values.
# The Table 3 below represents the mean IC50 obtained from at least three independent experiments of selected molecules performed in duplicate.
# T1 sequence (Q14831 35-922 isoform Q14831-2): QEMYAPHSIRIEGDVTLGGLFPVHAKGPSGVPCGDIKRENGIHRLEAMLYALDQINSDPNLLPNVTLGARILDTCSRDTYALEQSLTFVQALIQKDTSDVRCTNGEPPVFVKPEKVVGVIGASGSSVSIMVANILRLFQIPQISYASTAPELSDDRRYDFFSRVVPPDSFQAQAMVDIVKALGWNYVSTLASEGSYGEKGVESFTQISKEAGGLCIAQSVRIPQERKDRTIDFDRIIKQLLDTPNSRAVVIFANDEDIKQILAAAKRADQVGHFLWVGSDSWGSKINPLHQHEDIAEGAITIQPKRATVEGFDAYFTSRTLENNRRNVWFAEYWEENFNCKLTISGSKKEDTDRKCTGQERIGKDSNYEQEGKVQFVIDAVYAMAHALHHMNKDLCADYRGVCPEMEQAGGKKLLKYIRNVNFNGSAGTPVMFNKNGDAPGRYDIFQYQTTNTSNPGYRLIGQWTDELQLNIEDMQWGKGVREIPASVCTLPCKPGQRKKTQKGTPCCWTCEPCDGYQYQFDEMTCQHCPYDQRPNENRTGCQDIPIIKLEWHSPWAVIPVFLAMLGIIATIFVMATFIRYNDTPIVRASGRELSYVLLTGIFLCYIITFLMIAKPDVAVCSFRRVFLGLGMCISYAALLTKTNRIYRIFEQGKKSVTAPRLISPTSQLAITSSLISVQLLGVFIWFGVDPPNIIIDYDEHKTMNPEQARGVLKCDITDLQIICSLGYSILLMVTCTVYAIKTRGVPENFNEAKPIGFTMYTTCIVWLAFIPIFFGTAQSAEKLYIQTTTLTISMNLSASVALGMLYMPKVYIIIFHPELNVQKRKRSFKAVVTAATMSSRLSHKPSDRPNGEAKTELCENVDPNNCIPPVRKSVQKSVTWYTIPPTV
row,IC50 [µM],Structure (SMILES)
1,< 0.1,COc1ccc(-n2ncc3c(C)n(-c4cccc(N5CCC5)c4)c(C)c3c2=O)cc1CO [1-163]
2,< 0.1,Cc1c2cnn(-c3cccnc3)c(=O)c2c(C)n1-c1cccc(N2CCC2)c1 [1-164]
3,< 0.1,Cc1cc(-n2ncc3c(C)n(-c4cccc(N5CCC5)c4)c(C)c3c2=O)cc(C)n1 [1-165]
4,< 0.1,COc1cc(-n2ncc3c(C)n(-c4cccc(N5CCC5)c4)c(C)c3c2=O)ccc1CO [1-166]
5,0.1 to 1,Cc1c2cnn(-c3cccc(N4CCOCC4)c3)c(=O)c2c(C)n1-c1cccc(N2CCC2)c1 [1-167]
6,0.1 to 1,"Cc1c2cnn(-c3ccc(N4CCCC4)cc3)c(=O)c2c(C)n1-c1cccc(N2CCC2)c1 [1-168, 6-(3-(Azetidin-1-yl)phenyl)-5,7-dimethyl-2-(4-(pyrrolidin-1-yl)phenyl)-2,6-dihydro-1H-pyrrolo[3,4-d]pyridazin-1-one]"
7,< 0.1,"Cc1c2cnn(-c3ccc(CCO)cc3)c(=O)c2c(C)n1-c1cccc(N2CCC2)c1 [1-169, 6-(3-(Azetidin-1-yl)phenyl)-2-(4-(2-hydroxyethyl)phenyl)-5,7-dimethyl-2,6-dihydro-1H-pyrrolo[3,4-d]pyridazin-1-one]"
8,< 0.1,"Cc1c2cnn(-c3ccc(C(C)(C)O)cc3)c(=O)c2c(C)n1-c1cccc(N2CCC2)c1 [1-170, 6-(3-(Azetidin-1-yl)phenyl)-2-(4-(2-hydroxypropan-2-yl)phenyl)-5,7-dimethyl-2,6-dihydro-1H-pyrrolo[3,4-d]pyridazin-1-one]"
9,< 0.1,CC(=O)c1ccc(-n2ncc3c(C)n(-c4cccc(N5CCC5)c4)c(C)c3c2=O)cc1 [1-171]
10,0.1 to 1,COc1cccc(-n2c(C)c3cnn(-c4ccc(C)cn4)c(=O)c3c2C)c1 [1-172]
11,< 0.1,Cc1c2cnn(-c3ccc(F)cn3)c(=O)c2c(C)n1-c1cccc(N2CCC2)c1 [1-173]
12,< 0.1,Cc1c2cnn(-c3ccc(N4CCNCC4)cc3)c(=O)c2c(C)n1-c1cccc(N2CCC2)c1 [1-174]
13,0.1 to 1,COc1cc(OC)cc(-n2c(C)c3cnn(-c4ccccn4)c(=O)c3c2C)c1 [1-175]
14,0.1 to 1,COc1ccccc1-n1ncc2c(C)n(-c3cccc(N4CCC4)c3)c(C)c2c1=O [1-176]
15,< 0.1,Cc1c2cnn(-c3ccccc3F)c(=O)c2c(C)n1-c1cccc(N2CCC2)c1 [1-177]
16,< 0.1,Cc1c2cnn(-c3ccc(N4CCNC(=O)C4)cc3)c(=O)c2c(C)n1-c1cccc(N2CCC2)c1 [1-178]
17,0.1 to 1,Cc1c2cnn(-c3ccccn3)c(=O)c2c(C)n1-c1cccc(N2CCC(C)(C)C2)c1 [1-179]
18,< 0.1,CNC(=O)Cc1ccc(-n2ncc3c(C)n(-c4cccc(N5CCC5)c4)c(C)c3c2=O)cc1 [1-180]
19,1 to 10,Cc1c2cnn(-c3ccc(I)cc3)c(=O)c2c(C)n1-c1cccc(N2CCC2)c1 [1-181]
20,< 0.1,Cc1cc(-n2ncc3c(C)n(-c4cccc(N5CCC5)c4)c(C)c3c2=O)ccn1 [1-182]
21,< 0.1,Cc1c2cnn(-c3ccc(Cl)cn3)c(=O)c2c(C)n1-c1cccc(N2CCC2)c1 [1-183]

row,IC50 [µM],Structure (SMILES)
1,0.1 to 1,Cc1c2cnn(-c3ccc(C(=O)CNC(=O)OC(C)(C)C)cc3)c(=O)c2c(C)n1-c1cccc(N2CCC2)c1 [1-184]
2,< 0.1,Cc1c2cnn(-c3ccc(CC(N)=O)cc3)c(=O)c2c(C)n1-c1cccc(N2CCC2)c1 [1-185]
3,0.1 to 1,Cc1c2cnn(-c3ccccn3)c(=O)c2c(C)n1-c1ccc(C2CC2)cc1 [1-186]
4,1 to 10,Cc1c2cnn(-c3ccccn3)c(=O)c2c(C)n1-c1cccc(Oc2ccccc2)c1 [1-187]
5,< 0.1,"Cc1c2cnn(-c3ccc(CCF)cc3)c(=O)c2c(C)n1-c1cccc(N2CCC2)c1 [1-189, 6-(3-(Azetidin-1-yl)phenyl)-2-(4-(2-fluoroethyl)phenyl)-5,7-dimethyl-2,6-dihydro-1H-pyrrolo[3,4-d]pyridazin-1-one]"
6,0.1 to 1,Cc1c2cnn(C3CCCC3)c(=O)c2c(C)n1-c1cccc(N2CCC2)c1 [1-190]
7,1 to 10,COc1cc(F)ccc1-n1c(C)c2cnn(-c3ccccn3)c(=O)c2c1C [1-191]
8,0.1 to 1,Cc1c2cnn(-c3ccccn3)c(=O)c2c(C)n1-c1ccc(F)c(N2CCC2)c1 [1-192]
9,1 to 10,COc1ccccc1-n1c(C)c2cnn(-c3ccccn3)c(=O)c2c1C [1-193]
10,0.1 to 1,COc1ccc(F)c(-n2c(C)c3cnn(-c4ccccn4)c(=O)c3c2C)c1 [1-194]
11,< 0.1,Cc1c2cnn(-c3ccccn3)c(=O)c2c(C)n1-c1cc(F)cc(N2CCC2)c1 [1-195]
12,< 0.1,Cc1c2cnn(-c3ccccn3)c(=O)c2c(C)n1-c1cc(N2CCC2)ccc1F [1-196]
13,0.1 to 1,COc1cccc(-n2c(C)c3cnn(-c4ccccn4)c(=O)c3c2C)c1Cl [1-197]
14,< 0.1,Cc1c2cnn(-c3ncccn3)c(=O)c2c(C)n1-c1cccc2c1ccn2C1CC1 [1-198]
15,< 0.1,Cc1c(OC2CC2)cccc1-n1c(C)c2cnn(-c3ncccn3)c(=O)c2c1C [1-200]
16,0.1 to 1,Cc1ccc(-n2c(C)c3cnn(-c4ccccn4)c(=O)c3c2C)c(C)c1 [1-201]
17,< 0.1,Cc1c2cnn(-c3ccccn3)c(=O)c2c(C)n1-c1cccc(OC(F)F)c1 [1-202]
18,0.1 to 1,COc1cccc(-n2c(C)c3cnn(-c4ncccn4)c(=O)c3c2C)c1Cl [1-203]
19,0.1 to 1,COc1cccc(-n2c(C)c3cnn(-c4ncc(C)cn4)c(=O)c3c2C)c1Cl [1-204]
20,< 0.1,Cc1cnc(-n2ncc3c(C)n(-c4cccc(OC5CC5)c4C)c(C)c3c2=O)nc1 [1-205]
21,0.1 to 1,COc1cccc(-n2c(C)c3cnn(-c4ccc(C(C)(C)C)cn4)c(=O)c3c2C)c1 [1-206]

row,IC50 [µM],Structure (SMILES)
1,0.1 to 1,COc1cccc(-n2c(C)c3cnn(-c4ncc(C5CC5)cn4)c(=O)c3c2C)c1C [1-207]
2,< 0.1,Cc1c2cnn(-c3ncc(F)cn3)c(=O)c2c(C)n1-c1cc(F)cc(N2CCC2)c1 [1-208]
3,< 0.1,Cc1c2cnn(-c3ncccc3F)c(=O)c2c(C)n1-c1cc(F)cc(N2CCC2)c1 [1-209]
4,0.1 to 1,Cc1c2cnn(-c3ccccn3)c(=O)c2c(C)n1-c1cccc2c1CCN2C [1-210]
5,< 0.1,Cc1c(OC2CC2)cccc1-n1c(C)c2cnn(-c3ncccc3F)c(=O)c2c1C [1-211]
6,< 0.1,Cc1c(OC2CC2)cccc1-n1c(C)c2cnn(-c3ncc(F)cn3)c(=O)c2c1C [1-212]
7,< 0.1,Cc1c2cnn(-c3ncccc3F)c(=O)c2c(C)n1-c1cccc2c1ccn2C1CC1 [1-213]
8,< 0.1,Cc1c2cnn(-c3ncc(F)cn3)c(=O)c2c(C)n1-c1cccc2c1ccn2C1CC1 [1-214]
9,< 0.1,COc1cccc(-n2c(C)c3cnn(-c4ccc(C(C)(C)O)cn4)c(=O)c3c2C)c1 [1-216]
10,< 0.1,Cc1c2cnn(-c3ncccc3F)c(=O)c2c(C)n1-c1cc(N2CCC2)ccc1F [1-217]
11,0.1 to 1,Cc1c2cnn(-c3ncc(F)cn3)c(=O)c2c(C)n1-c1cc(N2CCC2)ccc1F [1-218]
12,0.1 to 1,Cc1c2cnn(-c3ccc(N4CCOCC4)cc3)c(=O)c2c(C)n1-c1cccc(N2CCC2)c1 [1-219]
13,1 to 10,Cc1c(O)cccc1-n1c(C)c2cnn(-c3ccc(N4CCOCC4)cc3)c(=O)c2c1C [1-220]
14,1 to 10,Cc1c(OC2CC2)cccc1-n1c(C)c2cnn(-c3ccc(N4CCOCC4)cc3)c(=O)c2c1C [1-221]
15,0.1 to 1,Cc1c2cnn(C34CC(C3)C4)c(=O)c2c(C)n1-c1cccc(N2CCC2)c1 [1-222]
16,0.1 to 1,Cc1c2cnn(-c3ncccn3)c(=O)c2c(C)n1-c1cccc(N2CCC2)c1 [1-223]
17,< 0.1,COc1cnc(-n2ncc3c(C)n(-c4cccc(N5CCC5)c4)c(C)c3c2=O)nc1 [1-224]
18,< 0.1,Cc1c2cnn(-c3ncccc3F)c(=O)c2c(C)n1-c1cccc(N2CCC2)c1 [1-225]
19,< 0.1,Cc1c2cnn(-c3ncc(F)cn3)c(=O)c2c(C)n1-c1cccc(N2CCC2)c1 [1-226]
20,1 to 10,Cc1c2cnn(-c3nccs3)c(=O)c2c(C)n1-c1cccc(N2CCC2)c1 [1-227]
21,< 0.1,Cc1cnc(-n2ncc3c(C)n(-c4cccc(N5CCC5)c4)c(C)c3c2=O)nc1 [1-228]
